{
  "source": "patent EP0399909A1",
  "about": "“Cosmetic composition against skin ageing” (ELF SANOFI, priority 1989, dated 1990)",
  "tested_on": "fibroblastes de peau humaine (ATCC No CRL 1513)",
  "experiment": "SAMe formation in cultured human skin fibroblasts with increasing betaine concentrations (HPLC determination)",
  "assay_type": "cell-based",
  "details": "for Concentration de SAMe: 6 days culture, control without bétaïne 0,54",
  "protocol": "L'effet exercé par la bétaïne sur la formation de SAMe a été mis en évidence par les résultats obtenus à des concentrations croissantes de bétaïne dans des fibroblastes de peau humaine (ATCC No CRL 1513) en culture. Plus précisément, les cellules (2.10⁴/ml) ont été mises en culture pendant 6 jours dans 250 ml de milieu de culture Dulbecco's Modified Eagle Medium (DMEM) contenant 20 % de sérum de veau foetal, en présence de concentrations croissantes (de 10⁻⁵ M à 5.10⁻⁴ M) de bétaïne. Au terme de la culture, les cellules ont été décollées à la trypsine (0,05 %) et à l'EDTA (0,02 %) et centrifugées. Le surnageant a été récupéré et précipité à l'acide trichloroacétique (0,2 N, v/v) puis centrifugé à nouveau. Le surnageant a été ensuite récupéré et lyophylisé. Les lyophylisats ont été repris avec de l'eau et analysés en HPLC (Colonne : Nucléosyl C8; Eluant : Solvant A (acétate de sodium 8,2 g; octylsulfonate de sodium 200 mg; acide citrique 4,2 g; EDTA 50 mg; eau q.s. pour 1 litre) 95 % et Solvant B (méthanol) 5 %) en utilisant un détecteur à 260 nm. La quantité de SAMe a été déterminée d'après une gamme étalon traitée dans les mêmes conditions expérimentales.",
  "data": [
    {"smiles": "C[N+](C)(C)CC(=O)[O-]", "note": "[bétaïne, (CH₃)₃N⁺-CH₂-COO⁻]", "values": [
      {"measurement": "Concentration de SAMe", "setting": "Concentration de bétaïne 1 (10⁻⁵ M)", "value": "0,62 nMoles/10⁷ cellules"},
      {"measurement": "Concentration de SAMe", "setting": "Concentration de bétaïne 5 (10⁻⁵ M)", "value": "0,94 nMoles/10⁷ cellules"},
      {"measurement": "Concentration de SAMe", "setting": "Concentration de bétaïne 10 (10⁻⁵ M)", "value": "1,72 nMoles/10⁷ cellules"},
      {"measurement": "Concentration de SAMe", "setting": "Concentration de bétaïne 50 (10⁻⁵ M)", "value": "1,90 nMoles/10⁷ cellules"},
      {"measurement": "quantité d'adémétionine des fibroblastes de peau humaine", "setting": "in vitro, even at very low concentrations", "value": "agit significativement"}
    ]}
  ]
}
